Laboratory results reported in ChEMBL document CHEMBL3817834, “Scaffold morphing leading to evolution of 2,4-diaminoquinolines and aminopyrazolopyrimidines as inhibitors of the ATP synthesis pathway” (Medchemcomm, 2016).
Converted amounts (≈) assume the structure as drawn.

What was measured:
Type in all cases: functional
[1] = system: Mycobacterium tuberculosis; experiment: Antimycobacterial activity against ofloxacin resistant Mycobacterium tuberculosis isolate 12119 by turbidometric method
[2] = system: Mycobacterium tuberculosis; experiment: Antimycobacterial activity against isoniazid resistant Mycobacterium tuberculosis isolate 35822 by turbidometric method
[3] = system: Mycobacterium tuberculosis; experiment: Antimycobacterial activity against bedaquiline resistant Mycobacterium tuberculosis harboring A63P mutant by turbidometric method
[4] = system: Mycobacterium tuberculosis; experiment: Antimycobacterial activity against streptomycin resistant Mycobacterium tuberculosis isolate 35820 by turbidometric method
[5] = system: Mycobacterium tuberculosis; experiment: Antimycobacterial activity against ethambutol resistant Mycobacterium tuberculosis isolate 17003 by turbidometric method
[6] = system: Mycobacterium tuberculosis; experiment: Antimycobacterial activity against bedaquiline resistant Mycobacterium tuberculosis harboring I66M mutant by turbidometric method
[7] = system: Mycobacterium tuberculosis; experiment: Antimycobacterial activity against rifampicin resistant Mycobacterium tuberculosis isolate 19000 by turbidometric method

Row | Structure (SMILES) | MIC80 [1] | MIC80 [2] | MIC=>80 [3] | MIC80 [4] | MIC80 [5] | MIC=>80 [6] | MIC80 [7]
1 | CC[C@@H](CO)NCCN[C@@H](CC)CO [ETHAMBUTOL] | 4.9 µM (≈ 1 µg/mL) | 9.8 µM (≈ 2 µg/mL) | 9.8 µM (≈ 2 µg/mL) | 9.8 µM (≈ 2 µg/mL) | > 20 µM | 9.8 µM (≈ 2 µg/mL) | 9.8 µM (≈ 2 µg/mL)
2 | CO[C@H]1/C=C/O[C@@]2(C)Oc3c(C)c(O)c4c(O)c(c(/C=N/N5CCN(C)CC5)c(O)c4c3C2=O)NC(=O)/C(C)=C\C=C\[C@H](C)[C@H](O)[C@@H](C)[C@@H](O)[C@@H](C)[C@H](OC(C)=O)[C@@H]1C [RIFAMPIN] | 0.04 µM (≈ 0.0329 µg/mL) | 0.04 µM (≈ 0.0329 µg/mL) | 0.04 µM (≈ 0.0329 µg/mL) | 0.04 µM (≈ 0.0329 µg/mL) | 0.04 µM (≈ 0.0329 µg/mL) | 0.04 µM (≈ 0.0329 µg/mL) | > 1.2 µM
3 | NNC(=O)c1ccncc1 [ISONIAZID] | 0.2 µM (≈ 0.0274 µg/mL) | > 15 µM | 0.2 µM (≈ 0.0274 µg/mL) | 0.2 µM (≈ 0.0274 µg/mL) | 0.2 µM (≈ 0.0274 µg/mL) | 0.2 µM (≈ 0.0274 µg/mL) | 0.2 µM (≈ 0.0274 µg/mL)
4 | CC1COc2c(N3CCN(C)CC3)c(F)cc3c(=O)c(C(=O)O)cn1c23 (stereo not given) [OFLOXACIN] | > 5.6 µM | 0.7 µM (≈ 0.253 µg/mL) | 0.7 µM (≈ 0.253 µg/mL) | 0.7 µM (≈ 0.253 µg/mL) | 0.3 µM (≈ 0.108 µg/mL) | 0.7 µM (≈ 0.253 µg/mL) | 0.7 µM (≈ 0.253 µg/mL)
5 | CN(C)CCOc1ncc(Nc2cc(N3CCC(c4ccccc4Cl)C3)nc3cc(F)c(F)cc23)cc1F (stereo not given) | 25 µM (≈ 13.6 µg/mL) | 3.1 µM (≈ 1.68 µg/mL) | 3.1 µM (≈ 1.68 µg/mL) | 25 µM (≈ 13.6 µg/mL) | 6.3 µM (≈ 3.41 µg/mL) | 3.1 µM (≈ 1.68 µg/mL) | 3.1 µM (≈ 1.68 µg/mL)
6 | COc1nc2ccc(Br)cc2cc1[C@@H](c1ccccc1)[C@@](O)(CCN(C)C)c1cccc2ccccc12 [BEDAQUILINE] | < 2 µM | < 2 µM | >10 µM | < 2 µM | < 2 µM | 10 µM (≈ 5.56 µg/mL) | < 2 µM
7 | COc1cc2nc(N3CCC(c4ccccc4Cl)C3)cc(Nc3cnc(OCCN(C)C)c(F)c3)c2cc1OC (stereo not given) | 12.5 µM (≈ 7.08 µg/mL) | 6.3 µM (≈ 3.57 µg/mL) | 3.1 µM (≈ 1.75 µg/mL) | 12.5 µM (≈ 7.08 µg/mL) | 6.3 µM (≈ 3.57 µg/mL) | 6.3 µM (≈ 3.57 µg/mL) | 3.1 µM (≈ 1.75 µg/mL)
8 | CN[C@@H]1[C@H](O[C@H]2[C@H](O[C@H]3[C@H](O)[C@@H](O)[C@H](N=C(N)N)[C@@H](O)[C@@H]3N=C(N)N)O[C@@H](C)[C@]2(O)C=O)O[C@@H](CO)[C@H](O)[C@H]1O [STREPTOMYCIN] | 0.3 µM (≈ 0.174 µg/mL) | 0.3 µM (≈ 0.174 µg/mL) | 0.3 µM (≈ 0.174 µg/mL) | > 11 µM | 0.3 µM (≈ 0.174 µg/mL) | 0.3 µM (≈ 0.174 µg/mL) | 0.3 µM (≈ 0.174 µg/mL)
9 | CN(C)CCOc1ncc(Nc2cc(-c3ccccc3)nc3cc(-c4ccc(F)cc4)[nH]c23)cc1F | 25 µM (≈ 12.1 µg/mL) | 3.1 µM (≈ 1.51 µg/mL) | 3.1 µM (≈ 1.51 µg/mL) | 25 µM (≈ 12.1 µg/mL) | 6.3 µM (≈ 3.06 µg/mL) | 3.1 µM (≈ 1.51 µg/mL) | 3.1 µM (≈ 1.51 µg/mL)
10 | CN(C)CCOc1ncc(Nc2cc(-c3ccccc3)nc3cc(-c4ccc(F)cc4)nn23)cc1F | 12.5 µM (≈ 6.08 µg/mL) | 12.5 µM (≈ 6.08 µg/mL) | 12.5 µM (≈ 6.08 µg/mL) | 25 µM (≈ 12.2 µg/mL) | 6.3 µM (≈ 3.07 µg/mL) | 6.3 µM (≈ 3.07 µg/mL) | 6.3 µM (≈ 3.07 µg/mL)
